The target in the assay is T1, Der p1 allergen (Dermatophagoides pteronyssinus, UniProt P08176).
T1 construct: House dust was passed through a number of sieves and the fraction smaller than 53 μm was collected; from tissue; host or cells: house dust (sieved fraction smaller than 53 μm)
In words: Der p1 allergen reduction in house dust after vapour exposure in a booth (ELISA). The conditions noted are these: 0.8 ml β-pinene on 6 ml water vaporised by oil burner, house dust on PTFE tray, vs pre-treatment control. The text has this:
When using house dust for allergen denaturing tests an inherent difficulty is the variability of the amount of allergen in each small sample, even when taken from the same dust reservoir. The amount of dust in the pre-treatment sample must be accurately estimated in order to determine the extent of any allergen denaturing. In these tests the dust sample was applied to the test exposure surface and then one half of this surface dust was removed to measure the control pre-treatment allergen level of that specific sample. Each control was directly relevant to each sample, which gave the best possible estimate of the level of allergen in the sample before exposure to possible denaturant. All tests employed a glass reinforced plastic booth of size 0.7 m×0.7 m×1.0 m. All tests had 5 or 6 replicates. Average values are stated.
The following Examples all measure the reduction of the house dust mite Dermatophagoides pteronyssinus allergen—Der p1.
House dust was passed through a number of sieves and the fraction smaller than 53 μm was collected. 0.025 g of dust was placed in a small sieve to distribute it evenly over the test surface. The test surface was a PTFE (polytetrafluoroethylene—trade mark TEFLON) coated metal tray of size 30 cm×30 cm. The dust was applied to the tray by moving the sieve continuously over the surface while tapping the sieve. One half of the dust was then removed by suction onto an in-line filter and the weight recorded, this was the pre-treatment control. The tray was then placed in the booth. An oil burner containing 0.8 ml of β-pinene floated on 6ml of distilled water was placed in the booth, and the booth was sealed. The oil burner candle was lit and allowed to burn, under the oil/water until all the liquid had been vaporised (approximately 30 minutes). The candle was then smothered. After 24 hours the tray was removed, the dust was collected from it and its weight recorded. The booth was washed with strong detergent between tests.
The test samples were assayed for the Der p1 allergen using an ELISA (enzyme linked immunosorbent assay) to determine the allergen content. This was then related to the weight of dust that had been present in each sample. All of the samples were multiplied up to compare the amount of allergen expected to be present in a 0.1 g sample of dust. The percentage difference between the control sample and the exposed sample was then obtained. One analysis was carried out on week 0 (24 hours after the tests were completed. Another analysis was carried out after 2 weeks.
Corresponding tests were carried out and the same ELISA analysis carried out at Week 0 and after 4 weeks.
(In an ELISA, binding on a coated surface is turned into a signal by an enzyme label.)

T1 sequence (P08176 99-320): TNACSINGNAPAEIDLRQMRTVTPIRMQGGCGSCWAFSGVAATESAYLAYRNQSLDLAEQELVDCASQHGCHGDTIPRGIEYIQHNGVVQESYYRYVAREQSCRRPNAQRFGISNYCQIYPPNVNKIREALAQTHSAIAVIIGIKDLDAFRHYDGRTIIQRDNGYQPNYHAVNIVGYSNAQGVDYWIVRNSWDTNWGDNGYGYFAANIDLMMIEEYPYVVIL

Regarding `C=C1CCC2CC1C2(C)C` (stereo not drawn) [β-pinene], the “Der p1 allergen reduction” value reads like this: (corresponding (second) test series, Week 0) “Week 0-77.5%”; (corresponding (second) test series, Week 4 (analysis after 4 weeks)) “Week 4-91.6%”; (first test series, Week 0 (24 hours after the tests were completed)) “Week 0-68.0%”; (first test series, Week 2 (analysis after 2 weeks)) “Week 2-66.3%”.

The values above are taken from US20090076172A1, “Prolonged Deactivation” (priority 2004, published 2009).
